# In patent EP4722212A1, “NOVEL COMPOUND FOR INHIBITING PROTEIN KINASES AND PHARMACEUTICAL COMPOSITION COMPRISING SAME” (Magicbullettherapeutics Co., Ltd., priority 2023, dated 2024):
# Like-named read-outs stand apart in the source and are kept apart here.
# How the values were obtained:
# Test in all cases: Kinase panel
# Format in all cases: biochemical
# STK39/STLK3 = STK39/STLK3 (Homo sapiens, UniProt Q9UEW8); conditions: STK39/STLK3, 1 µM; read-out: residual enzyme activity
# Outline: (§1)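 Full kinase panel, biochemical readout. A single 1 µM compound concentration was tested, and residual activity was derived; kinases whose activity dropped to 40% or less were recorded.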
# KHS/MAP4K5 = KHS/MAP4K5 (Homo sapiens, UniProt Q9Y4K4); conditions: KHS/MAP4K5, 1 µM; read-out: residual enzyme activity
# Outline: as §1
# PAK5 = PAK5 (Homo sapiens, UniProt Q9P286); conditions: PAK5, 1 µM; read-out: residual enzyme activity
# Outline: as §1
# P38G = P38G (Homo sapiens, UniProt P53778); conditions: read-out: residual enzyme activity
# Outline: as §1
# PIM1 = PIM1 (Homo sapiens, UniProt P11309); conditions: PIM1, 1 µM; read-out: residual enzyme activity
# Outline: as §1
# PLK4/SAK = PLK4/SAK (Homo sapiens, UniProt O00444); conditions: read-out: residual enzyme activity
# Outline: as §1
# NEK1 = NEK1 (Homo sapiens, UniProt Q96PY6); conditions: NEK1, 1 µM; read-out: residual enzyme activity
# Outline: as §1
# HASPIN = HASPIN (Homo sapiens, UniProt Q8TF76); conditions: read-out: residual enzyme activity
# Outline: as §1
# PLK2 = PLK2 (Homo sapiens, UniProt Q9NYY3); conditions: PLK2, 1 µM; read-out: residual enzyme activity
# Outline: as §1
# ALK = ALK (Homo sapiens, UniProt Q9UM73); conditions: read-out: residual enzyme activity
# Outline: as §1
# AKT3 = AKT3 (Homo sapiens, UniProt Q9Y243); conditions: AKT3, 1 µM; read-out: residual enzyme activity
# Outline: as §1
# JNK2 = JNK2 (Homo sapiens, UniProt P45984); conditions: read-out: residual enzyme activity
# Outline: as §1
# EPHAS = EPHAS (Homo sapiens, UniProt P54756); conditions: read-out: residual enzyme activity
# Outline: as §1
# TIE2/TEK = TIE2/TEK (Homo sapiens, UniProt Q02763); conditions: read-out: residual enzyme activity
# Outline: as §1
# ABL2/ARG = ABL2/ARG (Homo sapiens, UniProt P42684); conditions: read-out: residual enzyme activity
# Outline: as §1
# GCK/MAP4K2 = GCK/MAP4K2 (Homo sapiens, UniProt Q12851); conditions: GCK/MAP4K2, 1 µM; read-out: residual enzyme activity
# Outline: as §1
# GRK7 = GRK7 (Homo sapiens, UniProt Q8WTQ7); conditions: GRK7, 1 µM; read-out: residual enzyme activity
# Outline: as §1
# TESK1 = TESK1 (Homo sapiens, UniProt Q15569); conditions: TESK1, 1 µM; read-out: residual enzyme activity
# Outline: as §1
# KSR2 = KSR2 (Homo sapiens, UniProt Q6VAB6); conditions: KSR2, 1 µM; read-out: residual enzyme activity
# Outline: as §1
# IR = IR (Homo sapiens, UniProt P06213); conditions: read-out: residual enzyme activity
# Outline: as §1
# WNK2 = WNK2 (Homo sapiens, UniProt Q9Y3S1); conditions: WNK2, 1 µM; read-out: residual enzyme activity
# Outline: as §1
# CDK9/CYCLIN T1 = CDK9/CYCLIN T1 (Homo sapiens, UniProt P50750); conditions: CDK9/cyclin T1, 1 µM; read-out: residual enzyme activity
# Outline: as §1
# MSK1/RPS6KA5 = MSK1/RPS6KA5 (Homo sapiens, UniProt O75582); conditions: MSK1/RPS6KA5, 1 µM; read-out: residual enzyme activity
# Outline: as §1
# SGK1 = SGK1 (Homo sapiens, UniProt O00141); conditions: SGK1, 1 µM; read-out: residual enzyme activity
# Outline: as §1
# FES/FPS = FES/FPS (Homo sapiens, UniProt P07332); conditions: read-out: residual enzyme activity
# Outline: as §1
# MEKK1 = MEKK1 (Homo sapiens, UniProt Q13233); conditions: MEKK1, 1 µM; read-out: residual enzyme activity
# Outline: as §1
# IKKA/CHUK = IKKA/CHUK (Homo sapiens, UniProt O15111); conditions: read-out: residual enzyme activity
# Outline: as §1
# LATS1 = LATS1 (Homo sapiens, UniProt O95835); conditions: LATS1, 1 µM; read-out: residual enzyme activity
# Outline: as §1
# BRK = BRK (Homo sapiens, UniProt Q13882); conditions: read-out: residual enzyme activity
# Outline: as §1
# CDK2/CYCLIN E = CDK2/CYCLIN E (Homo sapiens, UniProt P24941); conditions: read-out: residual enzyme activity
# Outline: as §1
# C-MER = C-MER (Homo sapiens, UniProt Q12866); conditions: read-out: residual enzyme activity
# Outline: as §1
# PKA = PKA (Homo sapiens, UniProt P17612); conditions: read-out: residual enzyme activity
# Outline: as §1
# MYLK3 = MYLK3 (Homo sapiens, UniProt Q32MK0); conditions: MYLK3, 1 µM; read-out: residual enzyme activity
# Outline: as §1
# RSK4 = RSK4 (Homo sapiens, UniProt Q9UK32); conditions: RSK4, 1 µM; read-out: residual enzyme activity
# Outline: as §1
# Sequence of P38G (P53778 whole entry): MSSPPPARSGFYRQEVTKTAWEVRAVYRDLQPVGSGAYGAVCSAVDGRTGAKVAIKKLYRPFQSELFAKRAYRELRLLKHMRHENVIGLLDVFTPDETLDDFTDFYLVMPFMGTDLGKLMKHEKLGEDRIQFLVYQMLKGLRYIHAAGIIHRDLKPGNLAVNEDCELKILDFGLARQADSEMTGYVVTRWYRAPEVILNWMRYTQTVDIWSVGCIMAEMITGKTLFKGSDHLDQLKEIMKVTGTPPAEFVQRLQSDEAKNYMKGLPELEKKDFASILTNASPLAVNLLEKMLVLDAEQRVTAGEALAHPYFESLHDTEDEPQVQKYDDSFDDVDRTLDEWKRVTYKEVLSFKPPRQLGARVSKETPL
# Sequence of PIM1 (P11309 whole entry, species assumed): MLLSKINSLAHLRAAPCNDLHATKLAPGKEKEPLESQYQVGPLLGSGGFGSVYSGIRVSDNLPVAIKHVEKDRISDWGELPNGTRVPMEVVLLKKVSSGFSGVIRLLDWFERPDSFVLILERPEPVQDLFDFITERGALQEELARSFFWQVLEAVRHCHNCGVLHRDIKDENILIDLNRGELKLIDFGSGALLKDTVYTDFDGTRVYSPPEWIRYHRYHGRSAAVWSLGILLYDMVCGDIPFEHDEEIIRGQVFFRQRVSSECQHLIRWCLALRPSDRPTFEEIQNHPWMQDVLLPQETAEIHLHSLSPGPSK
# Sequence of GCK/MAP4K2 (Q12851 whole entry): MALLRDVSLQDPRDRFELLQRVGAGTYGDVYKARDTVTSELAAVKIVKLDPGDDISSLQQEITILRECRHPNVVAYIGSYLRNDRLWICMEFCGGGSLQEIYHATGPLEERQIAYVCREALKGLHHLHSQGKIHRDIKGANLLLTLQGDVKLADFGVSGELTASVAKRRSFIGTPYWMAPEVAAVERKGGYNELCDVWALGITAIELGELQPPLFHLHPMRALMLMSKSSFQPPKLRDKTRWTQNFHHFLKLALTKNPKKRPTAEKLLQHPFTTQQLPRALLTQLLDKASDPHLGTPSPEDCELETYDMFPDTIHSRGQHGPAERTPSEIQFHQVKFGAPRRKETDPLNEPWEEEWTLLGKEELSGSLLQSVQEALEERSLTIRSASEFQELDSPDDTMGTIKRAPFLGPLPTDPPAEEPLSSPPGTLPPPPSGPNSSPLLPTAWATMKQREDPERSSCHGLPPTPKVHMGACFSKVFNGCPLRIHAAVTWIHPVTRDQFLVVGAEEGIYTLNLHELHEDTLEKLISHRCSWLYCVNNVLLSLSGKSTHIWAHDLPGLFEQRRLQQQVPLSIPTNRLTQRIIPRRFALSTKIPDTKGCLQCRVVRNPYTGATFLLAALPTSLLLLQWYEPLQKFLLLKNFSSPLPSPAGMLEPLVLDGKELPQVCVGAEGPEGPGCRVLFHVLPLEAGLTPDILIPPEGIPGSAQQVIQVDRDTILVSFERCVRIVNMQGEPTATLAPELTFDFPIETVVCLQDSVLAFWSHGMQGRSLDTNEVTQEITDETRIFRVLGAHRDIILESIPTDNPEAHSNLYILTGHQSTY
# Sequence of TESK1 (Q15569 whole entry, species assumed): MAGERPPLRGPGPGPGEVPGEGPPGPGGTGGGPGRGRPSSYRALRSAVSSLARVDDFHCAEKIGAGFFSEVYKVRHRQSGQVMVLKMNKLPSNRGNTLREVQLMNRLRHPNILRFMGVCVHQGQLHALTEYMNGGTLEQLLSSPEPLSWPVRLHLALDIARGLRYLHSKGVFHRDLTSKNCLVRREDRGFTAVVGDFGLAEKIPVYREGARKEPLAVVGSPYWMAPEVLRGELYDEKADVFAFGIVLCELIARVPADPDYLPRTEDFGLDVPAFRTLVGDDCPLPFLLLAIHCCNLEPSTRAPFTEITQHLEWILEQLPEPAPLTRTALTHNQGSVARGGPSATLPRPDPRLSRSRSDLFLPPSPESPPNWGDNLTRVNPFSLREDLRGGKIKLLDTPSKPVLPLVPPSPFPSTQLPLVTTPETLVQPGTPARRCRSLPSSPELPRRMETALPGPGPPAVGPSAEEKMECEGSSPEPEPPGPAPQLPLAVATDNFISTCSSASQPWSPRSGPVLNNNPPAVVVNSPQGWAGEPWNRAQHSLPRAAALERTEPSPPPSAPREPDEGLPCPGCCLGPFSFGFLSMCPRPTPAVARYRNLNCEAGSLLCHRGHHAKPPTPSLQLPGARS
# Sequence of IKKA/CHUK (O15111 whole entry): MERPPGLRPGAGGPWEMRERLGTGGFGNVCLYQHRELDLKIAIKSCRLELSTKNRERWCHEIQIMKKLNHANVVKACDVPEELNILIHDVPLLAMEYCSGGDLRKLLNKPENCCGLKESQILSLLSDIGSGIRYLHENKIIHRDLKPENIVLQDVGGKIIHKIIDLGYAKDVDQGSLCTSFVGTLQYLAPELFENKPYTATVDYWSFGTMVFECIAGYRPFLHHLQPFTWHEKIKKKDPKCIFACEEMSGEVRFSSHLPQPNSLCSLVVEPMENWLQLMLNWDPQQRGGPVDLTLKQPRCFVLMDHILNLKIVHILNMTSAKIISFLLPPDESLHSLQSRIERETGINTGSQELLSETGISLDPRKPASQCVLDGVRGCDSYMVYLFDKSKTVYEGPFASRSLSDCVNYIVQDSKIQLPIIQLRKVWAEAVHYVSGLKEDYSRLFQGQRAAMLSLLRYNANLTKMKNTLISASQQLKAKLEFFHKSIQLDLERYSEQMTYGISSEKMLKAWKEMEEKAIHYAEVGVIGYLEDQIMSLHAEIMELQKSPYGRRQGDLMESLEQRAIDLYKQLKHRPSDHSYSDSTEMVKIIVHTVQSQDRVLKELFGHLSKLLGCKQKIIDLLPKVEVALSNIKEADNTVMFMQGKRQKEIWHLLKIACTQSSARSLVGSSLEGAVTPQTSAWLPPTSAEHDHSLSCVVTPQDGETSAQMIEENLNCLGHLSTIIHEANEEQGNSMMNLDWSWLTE
# Sequence of JNK2 (P45984 whole entry, species assumed): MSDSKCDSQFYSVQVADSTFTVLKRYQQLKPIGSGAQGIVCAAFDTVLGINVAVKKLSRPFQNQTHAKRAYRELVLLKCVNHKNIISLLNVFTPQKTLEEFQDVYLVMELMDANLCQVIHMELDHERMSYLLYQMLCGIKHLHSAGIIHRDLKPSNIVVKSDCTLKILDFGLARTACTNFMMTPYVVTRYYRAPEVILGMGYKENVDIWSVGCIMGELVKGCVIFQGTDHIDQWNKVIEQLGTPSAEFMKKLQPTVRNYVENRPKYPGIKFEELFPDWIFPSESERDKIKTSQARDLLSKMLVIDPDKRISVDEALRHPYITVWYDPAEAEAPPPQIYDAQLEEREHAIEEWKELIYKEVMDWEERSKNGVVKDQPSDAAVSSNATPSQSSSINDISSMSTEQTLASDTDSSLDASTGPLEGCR
# Sequence of LATS1 (O95835 whole entry, species assumed): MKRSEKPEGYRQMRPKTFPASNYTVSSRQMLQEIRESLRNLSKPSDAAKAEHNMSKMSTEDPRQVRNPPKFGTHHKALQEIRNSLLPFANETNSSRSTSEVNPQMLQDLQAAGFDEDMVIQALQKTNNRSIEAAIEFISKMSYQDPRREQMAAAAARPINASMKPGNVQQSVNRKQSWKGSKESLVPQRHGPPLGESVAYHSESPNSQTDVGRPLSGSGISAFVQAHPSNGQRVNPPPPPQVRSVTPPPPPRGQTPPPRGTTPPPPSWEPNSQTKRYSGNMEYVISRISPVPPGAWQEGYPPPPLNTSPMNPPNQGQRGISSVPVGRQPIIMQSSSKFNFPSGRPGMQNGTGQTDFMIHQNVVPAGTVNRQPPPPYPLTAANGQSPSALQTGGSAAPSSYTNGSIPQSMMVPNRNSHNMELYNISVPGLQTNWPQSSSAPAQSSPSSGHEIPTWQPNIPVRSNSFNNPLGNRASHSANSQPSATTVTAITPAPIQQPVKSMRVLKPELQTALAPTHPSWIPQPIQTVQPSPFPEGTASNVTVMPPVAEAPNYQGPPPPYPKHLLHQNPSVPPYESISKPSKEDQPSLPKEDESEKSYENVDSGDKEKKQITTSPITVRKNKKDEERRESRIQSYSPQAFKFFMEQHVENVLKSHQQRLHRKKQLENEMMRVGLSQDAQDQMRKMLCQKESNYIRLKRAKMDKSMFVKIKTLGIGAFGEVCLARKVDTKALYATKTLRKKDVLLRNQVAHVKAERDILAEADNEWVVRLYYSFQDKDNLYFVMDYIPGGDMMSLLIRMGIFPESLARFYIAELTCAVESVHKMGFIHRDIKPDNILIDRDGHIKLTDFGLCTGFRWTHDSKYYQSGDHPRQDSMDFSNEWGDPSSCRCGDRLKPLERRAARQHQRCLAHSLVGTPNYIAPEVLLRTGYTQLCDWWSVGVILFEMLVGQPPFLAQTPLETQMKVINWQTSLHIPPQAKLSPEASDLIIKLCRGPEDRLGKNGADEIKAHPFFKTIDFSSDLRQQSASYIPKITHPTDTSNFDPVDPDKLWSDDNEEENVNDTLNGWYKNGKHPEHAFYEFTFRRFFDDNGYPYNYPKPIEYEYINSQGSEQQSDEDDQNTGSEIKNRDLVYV
# Sequence of GRK7 (Q8WTQ7 whole entry, species assumed): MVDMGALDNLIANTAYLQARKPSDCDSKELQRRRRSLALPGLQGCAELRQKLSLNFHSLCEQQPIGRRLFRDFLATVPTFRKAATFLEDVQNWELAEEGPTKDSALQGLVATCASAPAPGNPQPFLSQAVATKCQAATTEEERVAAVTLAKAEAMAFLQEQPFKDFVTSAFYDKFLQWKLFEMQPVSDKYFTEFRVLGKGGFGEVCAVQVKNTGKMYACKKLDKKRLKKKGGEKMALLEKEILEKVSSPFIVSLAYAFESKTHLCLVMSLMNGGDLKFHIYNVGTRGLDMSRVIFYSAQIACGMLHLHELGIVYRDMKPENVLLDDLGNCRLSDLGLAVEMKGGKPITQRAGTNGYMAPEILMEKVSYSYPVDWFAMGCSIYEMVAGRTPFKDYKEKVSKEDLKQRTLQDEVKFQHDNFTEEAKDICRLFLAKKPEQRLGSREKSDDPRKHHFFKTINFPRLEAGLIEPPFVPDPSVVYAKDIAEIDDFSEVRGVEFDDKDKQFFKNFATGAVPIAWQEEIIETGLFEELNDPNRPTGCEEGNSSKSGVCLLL
Structure (SMILES),remaining activity at 1 µM (STK39/STLK3),remaining activity at 1 µM (KHS/MAP4K5),remaining activity at 1 µM (PAK5),remaining activity at 1 µM (PIM1),remaining activity at 1 µM (PLK4/SAK),remaining activity at 1 µM (NEK1),remaining activity at 1 µM (HASPIN),remaining activity at 1 µM (PLK2),remaining activity at 1 µM (ALK),remaining activity at 1 µM (AKT3),remaining activity at 1 µM (TIE2/TEK),remaining activity at 1 µM (ABL2/ARG),remaining activity at 1 µM (GCK/MAP4K2),remaining activity at 1 µM (GRK7),remaining activity at 1 µM (TESK1),remaining activity at 1 µM (KSR2),remaining activity at 1 µM (IR),remaining activity at 1 µM (WNK2),remaining activity at 1 µM (CDK9/CYCLIN T1),remaining activity at 1 µM (MSK1/RPS6KA5),further results
"Cc1ccc(Nc2ncc3c(n2)C2(CC2)C(=O)N(c2cc(NC(=O)c4cccc(C(F)(F)F)c4)ccc2C)C3)cn1 [Compound 51, N-(4-methyl-3-(2'-((6-methylpyridin-3-yl)amino)-7'-oxo-5'H-spiro[cyclopropane-1,8'-pyrido[4,3-d]pyrimidine]-6'(7'H)-yl)phenyl)-3-(trifluoromethyl)benzamide]",> 40%,≤ 40%,> 40%,> 40%,> 40%,> 40%,> 40%,> 40%,> 40%,> 40%,≤ 40%,≤ 40%,≤ 40%,> 40%,≤ 40%,> 40%,> 40%,> 40%,> 40%,> 40%,"remaining activity at 1 µM (P38G; P38g): > 40%; remaining activity at 1 µM (JNK2; INK2, 1 µM): ≤ 40%; remaining activity at 1 µM (EPHAS; EPHA5, 1 µM): ≤ 40%; remaining activity at 1 µM (SGK1): > 40%; remaining activity at 1 µM (FES/FPS): ≤ 40%; remaining activity at 1 µM (MEKK1): > 40%; remaining activity at 1 µM (IKKA/CHUK): > 40%; remaining activity at 1 µM (LATS1): > 40%; remaining activity at 1 µM (BRK): ≤ 40%; remaining activity at 1 µM (CDK2/CYCLIN E): > 40%; remaining activity at 1 µM (C-MER; c-MER): > 40%; remaining activity at 1 µM (PKA): > 40%; remaining activity at 1 µM (MYLK3): > 40%; remaining activity at 1 µM (RSK4): > 40%"
"Cc1cn(-c2cc(C(=O)Nc3ccc(C)c(N4Cc5cnc(NC6CC6)nc5C5(CC5)C4=O)c3)cc(C(F)(F)F)c2)cn1 [Compound 8, N-(3-(2'-(cyclopropylamino)-7'-oxo-5'H-spiro[cyclopropane-1,8'-pyrido[4,3-d]pyrimidine]-6'(7'H)-yl)-4-methylphenyl)-3-(4-methyl-1H-imidazol-1-yl)-5-(trifluoromethyl)benzamide]",> 40%,≤ 40%,> 40%,> 40%,> 40%,> 40%,> 40%,> 40%,> 40%,> 40%,≤ 40%,≤ 40%,≤ 40%,> 40%,≤ 40%,> 40%,> 40%,> 40%,> 40%,> 40%,"remaining activity at 1 µM (P38G; P38G): > 40%; remaining activity at 1 µM (JNK2; JNK2, 1 µM): > 40%; remaining activity at 1 µM (EPHAS; EPHAS (row 107), 1 µM): ≤ 40%; remaining activity at 1 µM (SGK1): > 40%; remaining activity at 1 µM (FES/FPS): ≤ 40%; remaining activity at 1 µM (MEKK1): > 40%; remaining activity at 1 µM (IKKA/CHUK): > 40%; remaining activity at 1 µM (LATS1): > 40%; remaining activity at 1 µM (BRK): ≤ 40%; remaining activity at 1 µM (CDK2/CYCLIN E): > 40%; remaining activity at 1 µM (C-MER; C-MER): > 40%; remaining activity at 1 µM (PKA): > 40%; remaining activity at 1 µM (MYLK3): > 40%; remaining activity at 1 µM (RSK4): > 40%"
